How the values were obtained:
[1] = 100 kPa, Liquid; for viscosity: Concentric cylinders viscometry; for mass density: Vibrating tube method
[2] = xn = mol fraction of the nth substance listed; conditions: 100 kPa, Liquid; for viscosity: Concentric cylinders viscometry; for mass density: Vibrating tube method

C[n+]1ccn(CCO)c1.F[B-](F)(F)F [1-(2-hydroxyethyl)-3-methylimidazolium tetrafluoroborate]
[1]
Conditions	mass density [kg/m3]	viscosity [mPa·s]
293.15 K	1362.4	153.6
298.15 K	1358.7	115.1
303.15 K	1354.8	87.98
308.15 K	1351.2	68.59
313.15 K	1347.4	54.81
318.15 K	1343.7	44.44
323.15 K	1340.1	36.5
328.15 K	1336.4	30.46
333.15 K	1332.8	25.73
338.15 K	1329.2	21.98
343.15 K	1325.5	18.95

CCCCn1cc[n+](C)c1.F[B-](F)(F)F [1-butyl-3-methylimidazolium tetrafluoroborate]
[1]
Conditions	mass density [kg/m3]	viscosity [mPa·s]
293.15 K	1204	141.1
298.15 K	1200.5	107.5
303.15 K	1197	83.48
308.15 K	1193.4	65.97
313.15 K	1189.9	53
318.15 K	1186.3	43.21
323.15 K	1182.8	35.7
328.15 K	1179.3	29.86
333.15 K	1175.8	25.26
338.15 K	1172.3	21.59
343.15 K	1168.9	18.62

CCCCn1cc[n+](C)c1.F[B-](F)(F)F [1-butyl-3-methylimidazolium tetrafluoroborate] + CCCC[n+]1ccccc1.F[B-](F)(F)F
[2], x1 = 1
Conditions	mass density [kg/m3]	viscosity [mPa·s]
293.15 K	1204	141.1
298.15 K	1200.5	107.5
303.15 K	1197	83.48
308.15 K	1193.4	65.97
313.15 K	1189.9	53
318.15 K	1186.3	43.21
323.15 K	1182.8	35.7
328.15 K	1179.3	29.86
333.15 K	1175.8	25.26
338.15 K	1172.3	21.59
343.15 K	1168.9	18.62

CCCCn1cc[n+](C)c1.F[B-](F)(F)F [1-butyl-3-methylimidazolium tetrafluoroborate] + C[n+]1ccn(CCO)c1.F[B-](F)(F)F
[2], x2 = 0
Conditions	mass density [kg/m3]	viscosity [mPa·s]
293.15 K	1204	141.1
298.15 K	1200.5	107.5
303.15 K	1197	83.48
308.15 K	1193.4	65.97
313.15 K	1189.9	53
318.15 K	1186.3	43.21
323.15 K	1182.8	35.7
328.15 K	1179.3	29.86
333.15 K	1175.8	25.26
338.15 K	1172.3	21.59
343.15 K	1168.9	18.62

CCCC[n+]1ccccc1.F[B-](F)(F)F [1-butylpyridinium tetrafluoroborate]
[1]
Conditions	mass density [kg/m3]	viscosity [mPa·s]
293.15 K	1216.6	228.9
298.15 K	1213.1	166.9
303.15 K	1209.6	124.5
308.15 K	1206.2	94.97
313.15 K	1202.8	73.94
318.15 K	1199.4	58.64
323.15 K	1196	47.29
328.15 K	1192.6	38.71
333.15 K	1189.2	32.12
338.15 K	1185.8	26.98
343.15 K	1182.5	22.97

CCCC[n+]1ccccc1.F[B-](F)(F)F [1-butylpyridinium tetrafluoroborate] + C[n+]1ccn(CCO)c1.F[B-](F)(F)F
[2], x2 = 0
Conditions	mass density [kg/m3]	viscosity [mPa·s]
293.15 K	1216.6	228.9
298.15 K	1213.1	166.9
303.15 K	1209.6	124.5
308.15 K	1206.2	94.97
313.15 K	1202.8	73.94
318.15 K	1199.4	58.64
323.15 K	1196	47.29
328.15 K	1192.6	38.71
333.15 K	1189.2	32.12
338.15 K	1185.8	26.98
343.15 K	1182.5	22.97
